Three compounds from patent US11051515B2, “3-acyl-benzamides and their use as herbicides” (Bayer Aktiengesellschaft, priority 2017, dated 2021) can be followed below.

In experiment [1] the test system is VERPE. Put plainly: Post-emergence action against VERPE. It is filed as in vivo, Veronica persica. As to conditions: Veronica persica, 504 h, dosage 80 g/ha. An outline of the steps:
(§1)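 Post-emergence foliar spray on greenhouse plants at the one-leaf stage, using wettable-powder or emulsion-concentrate formulations in water (600 to […], plus 0.2% wetting agent). Damage scored by eye roughly 3 weeks later against untreated plants: 0% = like control, 100% = dead.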

Experiment [2] deals with VERPE. Put plainly: Pre-emergence action against VERPE. It is filed as in vivo, Veronica persica. As to conditions: Dosage 320 g/ha, pre-emergence; for pest or weed control at 320 g/ha: Veronica persica, 504 h. An outline of the steps:
(§2)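 Seeds sown in sandy loam in wood-fiber pots and covered with soil. Greenhouse growth; visual damage scored after 3 weeks versus untreated controls (100% = dead, 0% = like control).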

Experiment [3] relates to PHBPU. Put plainly: Post-emergence action against PHBPU. It counts as in vivo, Pharbitis purpurea. As to conditions: post-emergence, dosage 80 g/ha; for pest or weed control at 80 g/ha: Ipomoea purpurea, 504 h. In a few lines:
as §1

Experiment [4] has as its system MATIN. Put plainly: Pre-emergence action against MATIN. It is filed as in vivo, Matricaria inodora. As to conditions: Dosage 320 g/ha, pre-emergence; for pest or weed control at 320 g/ha: Tripleurospermum inodorum, 504 h. An outline of the steps: as §2
Experiment [5] concerns POLCO. Nature of the experiment: Pre-emergence action against POLCO. It is filed as in vivo, Polygonum convolvulus. As to conditions: Dosage 320 g/ha, pre-emergence; for pest or weed control at 320 g/ha: Fallopia convolvulus, 504 h. An outline of the steps: as §2
For experiment [6], the system named is ALOMY. Nature of the experiment: Pre-emergence action against ALOMY. It is filed as in vivo, Alopecurus myosuroides. As to conditions: dosage 320 g/ha, pre-emergence, scored visually after 3 weeks vs untreated controls, 100% = plants have died, 0% = like control plants; for pest or weed control at 320 g/ha: Alopecurus myosuroides, 504 h, read-out: Pre-emergence action against ALOMY (herbicidal activity in percent). An outline of the steps:
as §2

Experiment [7] deals with VIOTR. Nature of the experiment: Pre-emergence action against VIOTR. It is filed as in vivo, Viola tricolor. As to conditions: Dosage 320 g/ha, pre-emergence; for pest or weed control at 320 g/ha: Viola tricolor, 504 h. In a few lines: as §2
Experiment [8] has as its system ABUTH. Put plainly: Pre-emergence action against ABUTH. It counts as in vivo, Abutilon theophrasti. As to conditions: pre-emergence, dosage 320 g/ha, scored visually after 3 weeks vs untreated controls; for pest or weed control at 320 g/ha: Abutilon theophrasti, 504 h, read-out: Pre-emergence action against ABUTH (herbicidal activity). An outline of the steps:
as §2

The subject of experiment [9] is CYPES. Nature of the experiment: Post-emergence action against CYPES. It is filed as in vivo, Cyperus esculentus. As to conditions: post-emergence, dosage 80 g/ha, visual assessment about 3 weeks after treatment vs untreated controls; for pest or weed control at 80 g/ha: Cyperus esculentus, 504 h, read-out: Post-emergence action against CYPES (herbicidal action in percent). In a few lines:
as §1

Experiment [10] has as its system SETVI. Nature of the experiment: Post-emergence action against SETVI. As to conditions: post-emergence, dosage 80 g/ha, visual assessment about 3 weeks after treatment vs untreated controls; for pest or weed control at 80 g/ha: Setaria viridis, 504 h, read-out: Post-emergence action against SETVI (herbicidal action in percent). It is filed as in vivo, Setaria viridis. An outline of the steps:
as §1

Experiment [11] has as its system AMARE. Put plainly: Post-emergence action against AMARE. It counts as in vivo, Amaranthus retroflexus. As to conditions: post-emergence, dosage 80 g/ha, visual assessment about 3 weeks after treatment vs untreated controls; for pest or weed control at 80 g/ha: Amaranthus retroflexus, 504 h, read-out: Post-emergence action against AMARE (herbicidal action in percent). An outline of the steps: as §1

Experiment [12] relates to ECHCG. Nature of the experiment: Pre-emergence action against ECHCG. As to conditions: pre-emergence, dosage 320 g/ha, scored visually after 3 weeks vs untreated controls; for pest or weed control at 320 g/ha: Echinochloa crus-galli, 504 h, read-out: Pre-emergence action against ECHCG (herbicidal activity). It is filed as in vivo, Echinochloa crus-galli. An outline of the steps: as §2

Experiment [13] deals with AMARE. Put plainly: Pre-emergence action against AMARE. It counts as in vivo, Amaranthus retroflexus. As to conditions: pre-emergence, dosage 320 g/ha, scored visually after 3 weeks vs untreated controls; for pest or weed control at 320 g/ha: Amaranthus retroflexus, 504 h, read-out: Pre-emergence action against AMARE (herbicidal activity). In a few lines:
as §2

In experiment [14] the test system is AVEFA. Put plainly: Pre-emergence action against AVEFA. As to conditions: dosage 320 g/ha, scored visually after 3 weeks vs untreated controls; for pest or weed control at 320 g/ha: Avena fatua, 504 h, read-out: Pre-emergence action against AVEFA (herbicidal activity). It is filed as in vivo, Avena fatua. In a few lines:
as §2

In experiment [15] the test system is SETVI. Nature of the experiment: Pre-emergence action against SETVI. As to conditions: pre-emergence, dosage 320 g/ha, scored visually after 3 weeks vs untreated controls; for pest or weed control at 320 g/ha: Setaria viridis, 504 h, read-out: SETVI (Table B8, pre-emergence herbicidal activity). It counts as in vivo, Setaria viridis. An outline of the steps: as §2

Experiment [16] relates to POLCO. Nature of the experiment: Post-emergence action against POLCO. It counts as in vivo, Polygonum convolvulus. As to conditions: post-emergence, dosage 80 g/ha; for pest or weed control at 80 g/ha: Fallopia convolvulus, 504 h. An outline of the steps:
as §1

The test system of experiment [17] is VIOTR. Put plainly: Post-emergence action against VIOTR. It is filed as in vivo, Viola tricolor. As to conditions: post-emergence, dosage 80 g/ha; for pest or weed control at 80 g/ha: Viola tricolor, 504 h. In a few lines:
as §1

In experiment [18] the test system is LOLMU. Nature of the experiment: Pre-emergence action against LOLMU. It is filed as in vivo, Lolium multiflorum. As to conditions: dosage 320 g/ha, scored visually after 3 weeks vs untreated controls; for pest or weed control at 320 g/ha: Lolium multiflorum, 504 h, read-out: Pre-emergence action against LOLMU (herbicidal activity). The source says:
Seeds of monocotyledonous and dicotyledonous weed plants and crop plants are laid out in sandy loam soil in wood-fiber pots and covered with soil. The compounds of the invention, formulated in the form of wettable powders (WP) or as emulsion concentrates (EC), are then applied to the surface of the covering soil in the form of an aqueous suspension or emulsion at a water application rate equating to […], with addition of 0.2% wetting agent. After the treatment, the pots are placed in a greenhouse and kept under good growth conditions for the trial plants. The damage to the test plants is scored visually after a test period of 3 weeks by comparison with untreated controls (herbicidal activity in percent (%): 100% activity=the plants have died, 0% activity=like control plants).

In experiment [19] the test system is ABUTH. Put plainly: Post-emergence action against ABUTH. As to conditions: post-emergence, dosage 80 g/ha, visual assessment about 3 weeks after treatment vs untreated controls; for pest or weed control at 80 g/ha: Abutilon theophrasti, 504 h, read-out: Post-emergence action against ABUTH (herbicidal action in percent). It is filed as in vivo, Abutilon theophrasti. In a few lines: as §1

In experiment [20] the test system is STEME. Put plainly: Pre-emergence action against STEME. It is filed as in vivo, Stellaria media. As to conditions: Dosage 320 g/ha, pre-emergence; for pest or weed control at 320 g/ha: Stellaria media, 504 h. In a few lines: as §2
For experiment [21], the system named is MATIN. Nature of the experiment: Post-emergence action against MATIN. It counts as in vivo, Matricaria inodora. As to conditions: post-emergence, dosage 80 g/ha, visual assessment about 3 weeks after treatment vs untreated controls; for pest or weed control at 80 g/ha: Tripleurospermum inodorum, 504 h, read-out: Post-emergence action against MATIN (herbicidal action in percent). In a few lines: as §1

Experiment [22] concerns STEME. Nature of the experiment: Post-emergence action against STEME. It is filed as in vivo, Stellaria media. As to conditions: post-emergence, dosage 80 g/ha; for pest or weed control at 80 g/ha: Stellaria media, 504 h. In a few lines: as §1
The subject of experiment [23] is ECHCG. Nature of the experiment: Post-emergence action against ECHCG. It is filed as in vivo, Echinochloa crus-galli. As to conditions: post-emergence, dosage 80 g/ha, visual assessment about 3 weeks after treatment vs untreated controls; for pest or weed control at 80 g/ha: Echinochloa crus-galli, 504 h, read-out: Post-emergence action against ECHCG (herbicidal action in percent). In a few lines: as §1

In experiment [24] the test system is CYPES. Nature of the experiment: Pre-emergence action against CYPES. As to conditions: pre-emergence, dosage 320 g/ha, scored visually after 3 weeks vs untreated controls; for pest or weed control at 320 g/ha: Cyperus esculentus, 504 h, read-out: Pre-emergence action against CYPES (herbicidal activity). It is filed as in vivo, Cyperus esculentus. An outline of the steps:
as §2

Molecules are shown by their SMILES.

As to `COc1c(C(=O)Nc2nnnn2C)ccc(C(F)(F)F)c1C(C)=O` [1-48], the pest or weed control at 80 g/ha in [1] turned out to be 80%; in [3], 90%; in experiment [9], 100%; in experiment [10] it was 80%; in experiment [11], 100%; in experiment [16], 90%. In addition, the pest or weed control at 80 g/ha in experiment [17] was 100%; in [19] it was 100%; in experiment [21], 100%; in [22], 100%; in experiment [23], 90%. Further, the pest or weed control at 320 g/ha turned out to be 100% in [2]; 100% in [4]; 90% in [5]; 90% in [6]; 100% in [7]; 100% in experiment [8]. Besides, the pest or weed control at 320 g/ha was found to be 100% in [12]; 100% in experiment [13]; 90% in experiment [14]; 100% in experiment [15]; 80% in [18]; 90% in experiment [20]. For the same compound, in [24], the pest or weed control at 320 g/ha worked out at 90%.
`CCn1nnnc1NC(=O)c1ccc(C(F)(F)F)c(C(C)=O)c1Cl` [2-137, 3-acetyl-2-chloro-N-(1-ethyl-1H-tetrazol-5-yl)-4-(trifluoromethyl)benzamide]: the pest or weed control at 80 g/ha in experiment [1] was found to be 90%; in [3] it was 90%; in experiment [9] it was 90%; in experiment [10], 100%; in experiment [11], 100%; in experiment [16], 90%. Moreover, the pest or weed control at 80 g/ha in [17] came out at 100%; in [19], 90%; in [21], 100%; in [22], 100%; in [23], 90%. The pest or weed control at 320 g/ha in experiment [2] amounted to 90%; in experiment [4] it was 100%; in [5] it was 90%; in experiment [6], 90%; in experiment [7], 100%; in experiment [8], 100%. For the same compound, the pest or weed control at 320 g/ha in experiment [12] stood at 100%; in experiment [13] it was 100%; in experiment [14] it was 90%; in experiment [15], 100%; in experiment [18], 80%; in experiment [20] it was 90%. The pest or weed control at 320 g/ha in experiment [24] was found to be 100%.
For `CCC(=O)c1c(Cl)ccc(C(=O)Nc2nnnn2CC)c1Cl` [2-115], the “Pre-emergence action against VERPE” value in [2] was 90%. The “Post-emergence action against PHBPU” value in [3] worked out at 90. Further, the “Pre-emergence action against MATIN” value in [4] was 100%. The “Pre-emergence action against POLCO” value in experiment [5] is recorded as 80%. In addition, the “Pre-emergence action against ALOMY (herbicidal activity in percent)” value in [6] worked out at 100%. Besides, the “Pre-emergence action against VIOTR” value in [7] is given as 100%. The “Pre-emergence action against ABUTH (herbicidal activity)” value in experiment [8] is recorded as 100%. For the same compound, the “Post-emergence action against CYPES (herbicidal action in percent)” value in experiment [9] is 80%. Moreover, the “Post-emergence action against SETVI (herbicidal action in percent)” value in experiment [10] was found to be 90%. For the same compound, in [11], the “Post-emergence action against AMARE (herbicidal action in percent)” value was 90%. Further, the “Pre-emergence action against ECHCG (herbicidal activity)” value in experiment [12] was determined as 100%. In experiment [13], the “Pre-emergence action against AMARE (herbicidal activity)” value amounted to 100%. For the same compound, in experiment [14], the “Pre-emergence action against AVEFA (herbicidal activity)” value was found to be 90%. The “SETVI (Table B8, pre-emergence herbicidal activity)” value in [15] worked out at 90%. Moreover, the “Post-emergence action against POLCO” value in experiment [16] is recorded as 100. In addition, the “Post-emergence action against VIOTR” value in experiment [17] is 100. The “Pre-emergence action against LOLMU (herbicidal activity)” value in [18] is on record as 100%. Also, in experiment [19], the “Post-emergence action against ABUTH (herbicidal action in percent)” value came to 90%. Moreover, the “Pre-emergence action against STEME” value in experiment [20] worked out at 100%. The “Post-emergence action against MATIN (herbicidal action in percent)” value in experiment [21] was found to be 100%. For the same compound, in experiment [22], the “Post-emergence action against STEME” value stood at 100. In addition, the “Post-emergence action against ECHCG (herbicidal action in percent)” value in experiment [23] was 90%. In experiment [24], the “Pre-emergence action against CYPES (herbicidal activity)” value came out at 90%.
